# Measured values taken from patent publication US20230273228A1, “Diagnostic Method and Compounds for the Treatment of Infections Caused by a Pathogen” (priority 2020, published 2023).
# Key:
# Type in all cases: in vivo, Golden Syrian Hamster
# TNF-α = assay: Cytokine/chemokine profile by qRT-PCR in lung tissues and blood of SARS-CoV-2 infected hamsters
# SARS-CoV-2 [1] = assay: Body weight variation of hamsters infected with SARS-CoV-2
# SARS-CoV-2 [2] = assay: Viral load determination by quantitative real-time RT-PCR in tissues of infected hamsters
smiles,measurement,setting,value
"CC/C=C\C/C=C\C[C@H](O)\C=C/C=C/C=C/[C@H](O)C/C=C\CCC(=O)OC [MaR1 ME, Methyl 7R,14S-dihydroxy-4Z,8E,10E,12Z,16Z,19Z-docosahexaenoate]",Impact on the chemokine and cytokine profile in infected animals,TNF-α,significant impact
same,Levels of TNF-α in the lungs compared with untreated animals,"TNF-α; lung tissue, 4, 7 and 14 dpi",significantly lower
same,"Improvement in weight loss, dependence on dose",SARS-CoV-2 [1]; MaR1 ME 0.05 and 0.5 mg/kg i.p. twice daily,dose dependent
same,Loss of body weight compared with infected untreated animals,"SARS-CoV-2 [1]; SARS-CoV-2 infected hamsters, MaR1 ME 0.05 and 0.5 mg/kg i.p., Lipinova 1.20 mg/kg by gavage, twice daily",decreases significantly
same,Body weight loss,"SARS-CoV-2 [1]; highest dose of MaR1 ME (0.5 mg/kg i.p. twice daily from day 2 post inoculation), SARS-CoV-2 infected hamsters",less than 5%
same,Impact on viral load in tissues,SARS-CoV-2 [2],significant impact
same,Viral load in the lungs,SARS-CoV-2 [2]; after a few days of treatment,significantly reduced
